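Test compounds were applied to cells in 96-well plates for 48 hours at 5 doses. GI50: concentration for 50% inhibition of growth. The concentration for full growth arrest is given as TGI.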
Key:
Assay in all cases: NCI tumour cell line growth inhibition, 48 h
SNB-19 CNS = system: SNB-19 CNS
DU-145 prostate = system: DU-145 prostate
UO-31 renal = system: UO-31 renal
SR leukemia = system: SR leukemia
RXF 393 renal = system: RXF 393 renal
HOP-92 NSCLC = system: HOP-92 NSCLC
RPMI-8226 leukemia = system: RPMI-8226 leukemia
SK-MEL-5 melanoma = system: SK-MEL-5 melanoma
M14 melanoma = system: M14 melanoma
HCT-15 colon = system: HCT-15 colon
SK-MEL-28 melanoma = system: SK-MEL-28 melanoma
IGROV1 ovarian = system: IGROV1 ovarian
MCF7 breast = system: MCF7 breast
HOP-62 NSCLC = system: HOP-62 NSCLC
HCT-116 colon = system: HCT-116 colon
SF-295 CNS = system: SF-295 CNS
NCI-H226 lung = system: NCI-H226 lung
ACHN renal = system: ACHN renal
PC-3 prostate = system: PC-3 prostate
CCRF-CEM leukemia = system: CCRF-CEM leukemia
OVCAR-5 ovarian = system: OVCAR-5 ovarian
CAKI-1 renal = system: CAKI-1 renal
NCI-H23 lung = system: NCI-H23 lung
UACC-62 melanoma = system: UACC-62 melanoma
HT29 colon = system: HT29 colon
HS 578T breast = system: HS 578T breast
NCI-H460 lung = system: NCI-H460 lung
BT-549 breast = system: BT-549 breast
SNB-75 CNS = system: SNB-75 CNS
HCC-2998 colon = system: HCC-2998 colon
COLO 205 colon = system: COLO 205 colon
SK-MEL-2 melanoma = system: SK-MEL-2 melanoma
MOLT-4 leukemia = system: MOLT-4 leukemia
K-562 leukemia = system: K-562 leukemia
MALME-3M melanoma = system: MALME-3M melanoma
OVCAR-4 ovarian = system: OVCAR-4 ovarian
SK-OV-3 ovarian = system: SK-OV-3 ovarian
OVCAR-8 ovarian = system: OVCAR-8 ovarian
KM12 colon = system: KM12 colon
UACC-257 melanoma = system: UACC-257 melanoma
EKVX NSCLC = system: EKVX NSCLC
NCI/ADR-RES ovarian = system: NCI/ADR-RES ovarian
TK-10 renal = system: TK-10 renal
SN12C renal = system: SN12C renal
MDA-N = system: MDA-N
A498 renal = system: A498 renal
A549 NSCLC = system: A549 NSCLC
SF-268 CNS = system: SF-268 CNS
T-47D breast = system: T-47D breast
U251 CNS = system: U251 CNS
MDA-MB-231 breast = system: MDA-MB-231 breast
HL-60(TB) leukemia = system: HL-60(TB) leukemia
LOX IMVI melanoma = system: LOX IMVI melanoma
SF-539 CNS = system: SF-539 CNS
OVCAR-3 ovarian = system: OVCAR-3 ovarian
NCI-H522 lung = system: NCI-H522 lung
786-0 renal = system: 786-0 renal
MDA-MB-435 = system: MDA-MB-435

Question: Which GI50 (SNB-19 CNS) does the source give for CC(=O)[O][Hg][c]1c(C)c(C)c(C)c(C)c1C here?
Answer: 1480 nM

Question: What about the TGI (SNB-19 CNS) of the same compound?
Answer: 2890 nM

Question: What about the GI50 (DU-145 prostate) of the same compound?
Answer: 8790 nM

Question: And the TGI (DU-145 prostate)?
Answer: 22800 nM

Question: And the GI50 (UO-31 renal)?
Answer: 3450 nM

Question: What about the TGI (UO-31 renal) of the same compound?
Answer: 7740 nM

Question: And the GI50 (SR leukemia)?
Answer: 127 nM

Question: And the GI50 (RXF 393 renal)?
Answer: 712 nM

Question: What about the TGI (RXF 393 renal) of the same compound?
Answer: 1930 nM

Question: What about the GI50 (HOP-92 NSCLC) of the same compound?
Answer: 1600 nM

Question: What about the TGI (HOP-92 NSCLC) of the same compound?
Answer: 3120 nM

Question: And the GI50 (RPMI-8226 leukemia)?
Answer: 1800 nM

Question: What about the TGI (RPMI-8226 leukemia) of the same compound?
Answer: 6220 nM

Question: What about the GI50 (SK-MEL-5 melanoma) of the same compound?
Answer: 1380 nM

Question: And the TGI (SK-MEL-5 melanoma)?
Answer: 2740 nM

Question: And the GI50 (M14 melanoma)?
Answer: 1350 nM

Question: What about the TGI (M14 melanoma) of the same compound?
Answer: 2650 nM

Question: And the GI50 (HCT-15 colon)?
Answer: 1380 nM

Question: And the TGI (HCT-15 colon)?
Answer: 2930 nM

Question: And the GI50 (SK-MEL-28 melanoma)?
Answer: 1260 nM

Question: And the TGI (SK-MEL-28 melanoma)?
Answer: 2630 nM

Question: What about the GI50 (IGROV1 ovarian) of the same compound?
Answer: 604 nM

Question: What about the TGI (IGROV1 ovarian) of the same compound?
Answer: 2200 nM

Question: And the GI50 (MCF7 breast)?
Answer: 843 nM

Question: And the TGI (MCF7 breast)?
Answer: 2130 nM

Question: What about the GI50 (HOP-62 NSCLC) of the same compound?
Answer: 2050 nM

Question: What about the TGI (HOP-62 NSCLC) of the same compound?
Answer: 4350 nM

Question: And the GI50 (HCT-116 colon)?
Answer: 3380 nM

Question: What about the TGI (HCT-116 colon) of the same compound?
Answer: 11800 nM

Question: What about the GI50 (SF-295 CNS) of the same compound?
Answer: 1710 nM

Question: What about the TGI (SF-295 CNS) of the same compound?
Answer: 3760 nM

Question: And the GI50 (NCI-H226 lung)?
Answer: 3650 nM

Question: And the TGI (NCI-H226 lung)?
Answer: 10000 nM

Question: And the GI50 (ACHN renal)?
Answer: 10000 nM

Question: And the TGI (ACHN renal)?
Answer: 23100 nM

Question: What about the GI50 (PC-3 prostate) of the same compound?
Answer: 2000 nM

Question: And the TGI (PC-3 prostate)?
Answer: 5680 nM

Question: And the GI50 (CCRF-CEM leukemia)?
Answer: 895 nM

Question: And the TGI (CCRF-CEM leukemia)?
Answer: 9710 nM

Question: What about the GI50 (OVCAR-5 ovarian) of the same compound?
Answer: 3330 nM

Question: What about the TGI (OVCAR-5 ovarian) of the same compound?
Answer: 8740 nM

Question: What about the GI50 (CAKI-1 renal) of the same compound?
Answer: 3020 nM

Question: What about the TGI (CAKI-1 renal) of the same compound?
Answer: 7690 nM

Question: And the GI50 (NCI-H23 lung)?
Answer: 980 nM

Question: What about the TGI (NCI-H23 lung) of the same compound?
Answer: 2520 nM

Question: What about the GI50 (UACC-62 melanoma) of the same compound?
Answer: 856 nM

Question: What about the TGI (UACC-62 melanoma) of the same compound?
Answer: 2950 nM

Question: And the GI50 (HT29 colon)?
Answer: 2020 nM

Question: And the TGI (HT29 colon)?
Answer: 4770 nM

Question: And the GI50 (HS 578T breast)?
Answer: 899 nM

Question: What about the TGI (HS 578T breast) of the same compound?
Answer: 3520 nM

Question: And the GI50 (NCI-H460 lung)?
Answer: 747 nM

Question: And the TGI (NCI-H460 lung)?
Answer: 2260 nM

Question: What about the GI50 (BT-549 breast) of the same compound?
Answer: 1160 nM

Question: What about the TGI (BT-549 breast) of the same compound?
Answer: 2380 nM

Question: And the GI50 (SNB-75 CNS)?
Answer: 1750 nM

Question: What about the TGI (SNB-75 CNS) of the same compound?
Answer: 3330 nM

Question: And the GI50 (HCC-2998 colon)?
Answer: 1530 nM

Question: And the TGI (HCC-2998 colon)?
Answer: 3200 nM

Question: What about the GI50 (COLO 205 colon) of the same compound?
Answer: 2700 nM

Question: And the TGI (COLO 205 colon)?
Answer: 7140 nM

Question: What about the GI50 (SK-MEL-2 melanoma) of the same compound?
Answer: 1410 nM

Question: What about the TGI (SK-MEL-2 melanoma) of the same compound?
Answer: 3370 nM

Question: What about the GI50 (MOLT-4 leukemia) of the same compound?
Answer: 223 nM

Question: And the TGI (MOLT-4 leukemia)?
Answer: 1110 nM

Question: What about the GI50 (K-562 leukemia) of the same compound?
Answer: 468 nM

Question: What about the TGI (K-562 leukemia) of the same compound?
Answer: 2630 nM

Question: And the GI50 (MALME-3M melanoma)?
Answer: 1240 nM

Question: What about the TGI (MALME-3M melanoma) of the same compound?
Answer: 2620 nM

Question: What about the GI50 (OVCAR-4 ovarian) of the same compound?
Answer: 2040 nM

Question: What about the TGI (OVCAR-4 ovarian) of the same compound?
Answer: 4470 nM

Question: And the GI50 (SK-OV-3 ovarian)?
Answer: 2690 nM

Question: And the TGI (SK-OV-3 ovarian)?
Answer: 6040 nM

Question: And the GI50 (OVCAR-8 ovarian)?
Answer: 1930 nM

Question: What about the TGI (OVCAR-8 ovarian) of the same compound?
Answer: 3880 nM

Question: What about the GI50 (KM12 colon) of the same compound?
Answer: 4060 nM

Question: What about the TGI (KM12 colon) of the same compound?
Answer: 15300 nM

Question: And the GI50 (UACC-257 melanoma)?
Answer: 1730 nM

Question: And the TGI (UACC-257 melanoma)?
Answer: 3450 nM

Question: What about the GI50 (EKVX NSCLC) of the same compound?
Answer: 1890 nM

Question: What about the TGI (EKVX NSCLC) of the same compound?
Answer: 3540 nM

Question: And the GI50 (NCI/ADR-RES ovarian)?
Answer: 7170 nM

Question: What about the TGI (NCI/ADR-RES ovarian) of the same compound?
Answer: 33400 nM

Question: What about the GI50 (TK-10 renal) of the same compound?
Answer: 2030 nM

Question: And the TGI (TK-10 renal)?
Answer: 3720 nM

Question: And the GI50 (SN12C renal)?
Answer: 1530 nM

Question: And the TGI (SN12C renal)?
Answer: 2970 nM

Question: What about the GI50 (MDA-N) of the same compound?
Answer: 1370 nM

Question: What about the TGI (MDA-N) of the same compound?
Answer: 2690 nM

Question: And the GI50 (A498 renal)?
Answer: 2680 nM

Question: What about the TGI (A498 renal) of the same compound?
Answer: 5400 nM

Question: What about the GI50 (A549 NSCLC) of the same compound?
Answer: 10700 nM

Question: What about the TGI (A549 NSCLC) of the same compound?
Answer: 27800 nM

Question: And the GI50 (SF-268 CNS)?
Answer: 549 nM

Question: And the TGI (SF-268 CNS)?
Answer: 2110 nM

Question: And the GI50 (T-47D breast)?
Answer: 1360 nM

Question: And the TGI (T-47D breast)?
Answer: 3740 nM

Question: And the GI50 (U251 CNS)?
Answer: 399 nM

Question: What about the TGI (U251 CNS) of the same compound?
Answer: 1610 nM

Question: And the GI50 (MDA-MB-231 breast)?
Answer: 552 nM

Question: And the TGI (MDA-MB-231 breast)?
Answer: 1310 nM

Question: And the GI50 (HL-60(TB) leukemia)?
Answer: 1910 nM

Question: And the TGI (HL-60(TB) leukemia)?
Answer: 4750 nM

Question: And the GI50 (LOX IMVI melanoma)?
Answer: 1290 nM

Question: What about the TGI (LOX IMVI melanoma) of the same compound?
Answer: 2820 nM

Question: And the GI50 (SF-539 CNS)?
Answer: 1660 nM

Question: What about the TGI (SF-539 CNS) of the same compound?
Answer: 3250 nM

Question: What about the GI50 (OVCAR-3 ovarian) of the same compound?
Answer: 1820 nM

Question: What about the TGI (OVCAR-3 ovarian) of the same compound?
Answer: 3310 nM

Question: What about the GI50 (NCI-H522 lung) of the same compound?
Answer: 1410 nM

Question: And the TGI (NCI-H522 lung)?
Answer: 3020 nM

Question: What about the GI50 (786-0 renal) of the same compound?
Answer: 1650 nM

Question: What about the TGI (786-0 renal) of the same compound?
Answer: 3030 nM

Question: What about the GI50 (MDA-MB-435) of the same compound?
Answer: 1500 nM

Question: And the TGI (MDA-MB-435)?
Answer: 3090 nM

— PubChem BioAssay (NCI)
